We go through 34 compounds from patent US7553867B2, “Furan or thiophene derivative and medicinal use thereof” (Takeda Pharmaceutical Company Limited, priority 2002, dated 2009).

Molecules are shown by their SMILES.

The term melting point denotes the temperature, or range, at which the solid turns liquid. `CCc1oc(-c2ccc(C(F)(F)F)cc2)cc1CCCOc1cc(CC(=O)O)ccc1Cl` [Example 6(98), [4-Chloro-3-(3-{2-ethyl-5-[4-(trifluoromethyl)phenyl]-3-furyl}propoxy)phenyl]acetic acid] had a melting point of 104 to 105 °C.

On to `Cc1oc(-c2ccc(C(F)(F)F)cc2)cc1COc1cc(CSC(C)(C)C(=O)O)ccc1Cl` [Example 6(99), 2-{[4-Chloro-3-({2-methyl-5-[4-(trifluoromethyl)phenyl]-3-furyl}methoxy)benzyl]thio}-2-methylpropionic acid], for which the melting point is 140 to 142 °C.

Compound `CCc1oc(-c2ccc(C(F)(F)F)cc2)cc1CCCOc1nn(CC(=O)O)c2ccccc12` [Example 6(100), [3-(3-{2-Ethyl-5-[4-(trifluoromethyl)phenyl]-3-furyl}propoxy)-1H-indazol-1-yl]acetic acid] had a melting point of 139 to 140 °C.

In turn, `Cc1oc(-c2ccc(C(F)(F)F)cc2)cc1COc1ccc2sc(CC(=O)O)cc2c1` [Example 6(101), [5-({2-Methyl-5-[4-(trifluoromethyl)phenyl]-3-furyl}methoxy)-1-benzothien-2-yl]acetic acid] came in with a melting point of 153 to 154 °C.

`CCc1oc(-c2ccc(C(F)(F)F)cc2)cc1CCCOc1ccc2sc(CC(=O)O)cc2c1` [Example 6(102), [5-(3-{2-Ethyl-5-[4-(trifluoromethyl)phenyl]-3-furyl}propoxy)-1-benzothien-2-yl]acetic acid]: the melting point lay in the range of 111 to 112 °C.

Take `Cc1oc(-c2ccc(C(F)(F)F)cc2)cc1COc1ccc2sc(CCC(=O)O)cc2c1` [Example 6(103), 3-[5-({2-Methyl-5-[4-(trifluoromethyl)phenyl]-3-furyl}methoxy)-1-benzothien-2-yl]propionic acid]: the melting point fell in the range of 187 to 188 °C.

Take `Cc1oc(-c2ccc(C(F)(F)F)cc2)cc1CCCCOc1ccc(OC(C)(C)C(=O)O)cc1` [Example 6(104), 2-Methyl-2-[4-(4-{2-methyl-5-[4-(trifluoromethyl)phenyl]-3-furyl}butoxy)phenoxy]propionic acid]: the melting point was in the range of 67 to 69 °C.

In turn, `Cc1oc(-c2ccc(C(F)(F)F)cc2)cc1CCCCOc1ccc(SC(C)(C)C(=O)O)cc1` [Example 6(106), 2-Methyl-2-{[4-(4-{2-methyl-5-[4-(trifluoromethyl)phenyl]-3-furyl}butoxy)phenyl]thio}propionic acid] had a melting point of 155 to 156 °C.

`Cc1oc(-c2ccc(C(F)(F)F)cc2)cc1COc1ccc2sc(CSC(C)(C)C(=O)O)cc2c1` [Example 6(107), 2-Methyl-2-({[5-({2-methyl-5-[4-(trifluoromethyl)phenyl]-3-furyl}methoxy)-1-benzothien-2-yl]methyl}thio)propionic acid] displayed a melting point of 158 to 159 °C.

`Cc1oc(-c2cccc(C(F)(F)F)c2)cc1COc1ccc(SC(C)(C)C(=O)O)cc1` [Example 6(108), 2-Methyl-2-{[4-({2-methyl-5-[3-(trifluoromethyl)phenyl]-3-furyl}methoxy)phenyl]thio}propionic acid]: the melting point lay in the range of 108 to 109 °C.

Compound `Cc1oc(-c2ccc(C(F)(F)F)cc2)cc1COc1cccc(CSC(C)(C)C(=O)O)c1` [Example 6(109), 2-Methyl-2-{[3-({2-methyl-5-[4-(trifluoromethyl)phenyl]-3-furyl}methoxy)benzyl]thio}propionic acid] had a melting point of 148 to 149 °C.

`COc1ccc(-c2cc(COc3cccc(CSC(C)(C)C(=O)O)c3)c(C)o2)cc1` [Example 6(110), 2-[(3-{[5-(4-Methoxyphenyl)-2-methyl-3-furyl]methoxy}benzyl)thio]-2-methylpropionic acid] had a melting point of 96 to 97 °C.

The compound `Cc1oc(-c2ccc(Cl)cc2)cc1COc1cccc(CSC(C)(C)C(=O)O)c1` [Example 6(111), 2-[(3-{[5-(4-Chlorophenyl)-2-methyl-3-furyl]methoxy}benzyl)thio]-2-methylpropionic acid] showed a melting point of 143 to 144 °C.

For the compound `Cc1oc(-c2cccc(F)c2)cc1COc1cccc(CSC(C)(C)C(=O)O)c1` [Example 6(112), 2-[(3-{[5-(3-Fluorophenyl)-2-methyl-3-furyl]methoxy}benzyl)thio]-2-methylpropionic acid], the melting point fell in the range of 116 to 117 °C.

`Cc1oc(-c2ccc(Cl)cc2)cc1COc1ccc(SC(C)(C)C(=O)O)cc1` [Example 6(114), 2-[(4-{[5-(4-Chlorophenyl)-2-methyl-3-furyl]methoxy}phenyl)thio]-2-methylpropionic acid] came in with a melting point of 130 to 131 °C.

The compound `Cc1oc(-c2cccc(F)c2)cc1COc1ccc(SC(C)(C)C(=O)O)cc1` [Example 6(115), 2-[(4-{[5-(3-Fluorophenyl)-2-methyl-3-furyl]methoxy}phenyl)thio]-2-methylpropionic acid] came in with a melting point of 146 to 147 °C.

For `Cc1oc(-c2ccccc2C(F)(F)F)cc1COc1ccc(SC(C)(C)C(=O)O)cc1` [Example 6(117), 2-Methyl-2-{[4-({2-methyl-5-[2-(trifluoromethyl)phenyl]-3-furyl}methoxy)phenyl]thio}propionic acid], the melting point was 115 to 116 °C.

On to `Cc1oc(-c2ccc(C(F)(F)F)cc2)cc1COc1cccc(SC(C)(C)C(=O)O)c1` [Example 6(118), 2-Methyl-2-{[3-({2-methyl-5-[4-(trifluoromethyl)phenyl]-3-furyl}methoxy)phenyl]thio}propionic acid], for which the melting point was in the range of 127 to 128 °C.

`Cc1oc(-c2ccccc2)cc1COc1cccc(CSC(C)(C)C(=O)O)c1` [Example 6(119), 2-Methyl-2-({3-[(2-methyl-5-phenyl-3-furyl)methoxy]benzyl}thio)propionic acid] registered a melting point of 113 to 114 °C.

In turn, `Cc1ccc(-c2cc(COc3cccc(CSC(C)(C)C(=O)O)c3)c(C)o2)cc1` [Example 6(120), 2-Methyl-2-[(3-{[2-methyl-5-(4-methylphenyl)-3-furyl]methoxy}benzyl)thio]propionic acid] yielded a melting point of 121 to 122 °C.

`Cc1oc(-c2ccc(C(F)(F)F)cc2)cc1CCCOc1ccc(SC(C)(C)C(=O)O)cc1` [Example 6(122), 2-Methyl-2-{[4-(3-{2-methyl-5-[4-(trifluoromethyl)phenyl]-3-furyl}propoxy)phenyl]thio}propionic acid] registered a melting point of 127 to 128 °C.

In the case of `Cc1oc(-c2ccc(C(F)(F)F)cc2)cc1COc1ccc(CCC(=O)O)cc1` [Example 6(123), 3-[4-({2-Methyl-5-[4-(trifluoromethyl)phenyl]-3-furyl}methoxy)phenyl]propionic acid], the melting point was in the range of 182 to 183 °C.

The compound `Cc1oc(-c2ccc(C(F)(F)F)cc2)cc1COc1cccc(-c2cccc(C(=O)O)c2)c1` [Example 6(125), 3′-({2-Methyl-5-[4-(trifluoromethyl)phenyl]-3-furyl}methoxy)-1,1′-biphenyl-3-carboxylic acid] gave a melting point of 178 to 179 °C.

The compound `Cc1oc(-c2ccc(C(F)(F)F)cc2)cc1COc1cccc(-c2cccc(CC(=O)O)c2)c1` [Example 6(126), [3′-({2-Methyl-5-[4-(trifluoromethyl)phenyl]-3-furyl}methoxy)-1,1′-biphenyl-3-yl]acetic acid] came in with a melting point of 128 to 129 °C.

As for `Cc1oc(-c2ccc(C(F)(F)F)cc2)cc1COc1cccc(CSC(C)C(=O)O)c1` (stereo not shown) [Example 9(1), 2-{[3-({2-Methyl-5-[4-(trifluoromethyl)phenyl]-3-furyl}methoxy)-benzyl]thio}propionic acid], the melting point fell in the range of 82 to 83 °C.

Compound `Cc1oc(-c2ccc(C(F)(F)F)cc2)cc1COc1cccc(CSC2(C(=O)O)CCC2)c1` [Example 9(3), 1-{[3-({2-Methyl-5-[4-(trifluoromethyl)phenyl]-3-furyl}methoxy)benzyl]thio}cyclobutanecarboxylic acid] came in with a melting point of 121 to 122 °C.

As for `CCCC(SCc1cccc(OCc2cc(-c3ccc(C(F)(F)F)cc3)oc2C)c1)C(=O)O` (stereo not shown) [Example 9(4), 2-{[3-({2-Methyl-5-[4-(trifluoromethyl)phenyl]-3-furyl}methoxy)benzyl]thio}pentanoic acid], the melting point lay in the range of 61 to 62 °C.

For the compound `Cc1oc(-c2ccc(C(F)(F)F)cc2)cc1CCc1ncc(CC(=O)O)s1` [Example 13(1), [2-(2-{2-Methyl-5-[4-(trifluoromethyl)phenyl]-3-furyl}ethyl)-1,3-thiazol-5-yl]acetic acid], the melting point lay within 143 to 145 °C.

`Cc1nc(CCc2cc(-c3ccc(C(F)(F)F)cc3)oc2C)sc1CC(=O)O` [Example 13(2), [4-Methyl-2-(2-{2-methyl-5-[4-(trifluoromethyl)phenyl]-3-furyl}ethyl)-1,3-thiazol-5-yl]acetic acid] returned a melting point of 168 to 169 °C.

Consider `Cc1oc(-c2ccc(C(F)(F)F)cc2)cc1CCc1nc(C(C)C)c(CC(=O)O)s1` [Example 13(3), [4-Isopropyl-2-(2-{2-methyl-5-[4-(trifluoromethyl)phenyl]-3-furyl}ethyl)-1,3-thiazol-5-yl]acetic acid], for which the melting point lay within 176 to 177 °C.

`Cc1nc(CCCc2cc(-c3ccc(C(F)(F)F)cc3)oc2C)sc1CC(=O)O` [Example 13(4), [4-Methyl-2-(3-{2-methyl-5-[4-(trifluoromethyl)phenyl]-3-furyl}propyl)-1,3-thiazol-5-yl]acetic acid] registered a melting point of 162 to 163 °C.

In turn, `Cc1oc(-c2ccc(C(F)(F)F)cc2)cc1CCc1ncc(CC(=O)O)o1` [Example 13(5), [2-(2-{2-Methyl-5-[4-(trifluoromethyl)phenyl]-3-furyl}ethyl)-1,3-oxazol-5-yl]acetic acid] displayed a melting point of 143 to 144 °C.

Consider `Cc1nc(CCc2cc(-c3ccc(C(F)(F)F)cc3)oc2C)oc1CC(=O)O` [Example 13(6), [4-Methyl-2-(2-{2-methyl-5-[4-(trifluoromethyl)phenyl]-3-furyl}ethyl)-1,3-oxazol-5-yl]acetic acid], for which the melting point is 120 to 121 °C.

Take `Cc1oc(-c2ccc(C(F)(F)F)cc2)cc1CCc1nc(C(C)C)c(CC(=O)O)o1` [Example 13(7), [4-Isopropyl-2-(2-{2-methyl-5-[4-(trifluoromethyl)phenyl]-3-furyl}ethyl)-1,3-oxazol-5-yl]acetic acid]: the melting point is 126 to 128 °C.
